# Measured values reported in patent publication US10201517B2, “Brimonidine gel compositions and methods of use” (Galderma Laboratories, L.P., priority 2010, dated 2019).
# Experiment: Microscopic observation of gel compositions for methylparaben crystalline particles
# Assay type: physicochemical
# Method: Microscopic observations were performed on additional representative batches of brimonidine topical gel compositions and placebo gel compositions containing 1.25% (w/w) carbomer, POBM and other ingredients. The observations have been done on one tube of each batch, with the microscope Axiolab DRBKT Zeiss no. 023733.01 with a camera ICC Zeiss or the microscope Olympus BX60. The microscopic observations were done at 5° C. and room temperature.
# Numerous formulations with different ingredients and varying concentrations of the ingredients were made and tested for the presence of the paraben crystals by microscopic observations. The microbiological quality of the formulations was also analyzed by using acceptance-test criteria in preservative-efficacy testing (PET) in the United States Pharmacopeia (USP) and the European Pharmacopoeia (EP).
structure (smiles),measurement,setting,value
"COC(=O)c1ccc(O)cc1 [methylparaben, methyl parahydroxybenzoate]",recrystallization in formulation,"addition of 0.1% of EDTA, POBM at 0.3% (w/w)",immediate recrystallization
COC(=O)c1ccc([O-])cc1.[Na+] [Na POBM],crystalline particles in formulation,methylparaben replaced with Na POBM at 0.3% (w/w),crystalline particles of Na POBM were still observed
